According to patent US20230339988A1, “Metal Complexes Of Macrocycles And/Or Isoprenoids And/Or Linear Tetrapyrroles By Mechanochemistry (Grinding Or Milling), Preparation Method Thereof, Sunscreen/Concealer/UV Absorber Thereof, Self-Assembled Coating Material Thereof, Superamphiphilic Material Or Surfaces Thereof, Hair Dyeing Thereof …” (priority 2019, published 2023):

Experiment: Solubility in carbon disulfide
Assay type: physicochemical
Settings: test tube
Source text: Carbon disulfide is a non-polar solvent which is commonly used as solvent for metal complexes.
It is clear that all of the reactants reacted by this mechanochemical process. The mechanochemical reaction promotes a chemical change.

solubility in carbon disulfide: completely soluble
SMILES: COc1cc(/C=C/C(=O)CC(=O)/C=C/c2ccc(O)c(OC)c2)ccc1O [Curcumin]
